Test results from paper PMC4347201, “The jasmonate-responsive GTR1 transporter is required for gibberellin-mediated stamen development in Arabidopsis” (Nature Communications, 2015).

How the values were obtained:
GTR2/NPF2.11 = biological target: T1, GTR2/NPF2.11 (Arabidopsis thaliana, UniProt Q9LV10); assay: uptake into Xenopus oocytes, UPLC/TOFMS; type: cell-based; conditions: pH 5, 24 h uptake, kulori-based buffer
T1 construct: forward primer starts ATGGAGAGAAAGCCTCTTG
T1 sequence (Q9LV10 1-616): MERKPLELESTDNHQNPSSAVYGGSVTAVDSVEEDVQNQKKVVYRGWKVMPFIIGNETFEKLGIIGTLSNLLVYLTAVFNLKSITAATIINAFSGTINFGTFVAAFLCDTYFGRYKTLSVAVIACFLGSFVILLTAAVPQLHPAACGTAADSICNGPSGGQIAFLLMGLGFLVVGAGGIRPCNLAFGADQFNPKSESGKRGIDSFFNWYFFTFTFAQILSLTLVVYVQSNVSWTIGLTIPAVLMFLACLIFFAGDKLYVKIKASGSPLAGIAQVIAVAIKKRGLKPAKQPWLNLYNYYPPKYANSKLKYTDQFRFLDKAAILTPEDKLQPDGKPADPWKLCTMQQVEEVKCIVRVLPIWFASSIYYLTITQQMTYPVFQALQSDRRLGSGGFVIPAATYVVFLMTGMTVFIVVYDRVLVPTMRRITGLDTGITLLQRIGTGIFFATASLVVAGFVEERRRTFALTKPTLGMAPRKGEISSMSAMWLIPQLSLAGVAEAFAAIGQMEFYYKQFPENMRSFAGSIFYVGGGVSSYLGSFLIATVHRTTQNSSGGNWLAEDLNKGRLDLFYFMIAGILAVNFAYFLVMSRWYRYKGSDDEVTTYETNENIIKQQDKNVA

[1] = substrate: C=C1C[C@]23C[C@@]1(O)CC[C@H]2[C@@]12C=C[C@H](O)[C@@](C)(C(=O)O1)[C@H]2[C@@H]3C(=O)O; assay: uptake into Xenopus oocytes, UPLC/TOFMS; type: cell-based, Arabidopsis thaliana; conditions: pH 5.0, 17 °C, 24 h uptake, kulori-based buffer, 1-2,000 μM GA3

C=C1C[C@]23C[C@@]1(O)CC[C@H]2[C@@]12C=C[C@H](O)[C@@](C)(C(=O)O1)[C@H]2[C@@H]3C(=O)O [GA3]
uptake into Xenopus oocytes, UPLC/TOFMS (GTR2/NPF2.11): GTR2, a close homologue of GTR1, also transported GA3 into oocytes

B1: GTR1/NPF2.10 (Arabidopsis thaliana) (protein)
chain: MKSRVILNHRDRRDKNHNNNNTNHYTQVDTMERKPLEVEPSTTTTNTDVVDSFEEEQRKIVYRGWKVMPFIIGNETFEKLGIIGTLSNLLVYLTSVFNLKSYTAATIINAFSGTINFGTFIAAFLCDTYFGRYKTLSVAVIACFLGSFVILLTAAIPSLHPVACGNKISCEGPSVGQILFLLMGLGFLVVGAGGIRPCNLAFGADQFNPKSESGKKGINSFFNWYFFTFTFAQIISLTAVVYIQSNVSWTIGLIIPVALMFLACVIFFAGDRLYVKVKASGSPLAGIARVIAAAIKKRGLKPVKQPWVNLYNHIPSNYANTTLKYTDQFRFLDKAAIMTPEEKLNSDGTASDPWKLCTLQQVEEVKCIVRVIPIWFASTIYYLAITIQMTYPVFQALQSDRRLGSGGFRIPAATYVVFLMTGMTVFIIFYDRVLVPSLRRVTGLETGISLLQRIGAGFTFAIMSLLVSGFIEERRRNFALTKPTLGMAPRTGEISSMSALWLIPQLTLAGIAEAFAAIGQMEFYYKQFPENMKSFAGSIFYVGAGVSSYLASFLISTVHRTTAHSPSGNWLAEDLNKAKLDYFYFMLTGLMVVNMAYFLLMARWYRYKGGNDEDITEIETNEEETKQQQLQDKNSV
Km [1]: 301.25 ± 225.46 µM
